For eleven compounds, TGI results are on record in PubChem BioAssay (NCI).

Holding throughout (test): inhibition of tumour cell growth, NCI panel, 48 h
Assay [1] has as its system NCI-H522 lung.
For assay [2], the system named is T-47D breast.
For assay [3], the system named is BT-549 breast.
The subject of assay [4] is HOP-62 NSCLC.
Assay [5] deals with LOX IMVI melanoma.
The test system of assay [6] is SF-539 CNS.
The subject of assay [7] is MALME-3M melanoma.
For assay [8], the system named is MCF7 breast.
Assay [9] deals with NCI-H460 lung.
Assay [10] deals with MDA-MB-435.
Assay [11] has as its system COLO 205 colon.

Molecules are shown by their SMILES.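 Tested at 5 concentrations; 48 h exposure; 96-well plates; endpoints linearly interpolated, else capped at highest concentration. At the TGI there is no net growth.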 Where only a bound is given, the exact number is not on record here.

As to `CC1Cc2cc(O)ccc2C2[C@@H]1C1CC[C@H](O)[C@@]1(C)C[C@@H]2O[N+](=O)[O-]` (stereo partly specified), the TGI in assay [1] is 61.3 µM; in assay [2], above 84.3 µM; in assay [3], 48.9 µM; in [4], 44.4 µM; in [5], 32.7 µM; in assay [6] it was 18.9 µM. Further, the TGI in [7] is above 79.6 µM; in assay [8], 25.3 µM; in assay [9] it was above 95.7 µM; in [10], 16.9 µM; in assay [11], 50.6 µM.

As to `C[C@@H]1OC(=O)/C(=C\N(C)C)[C@H]2CC(=O)N(CCc3cn(S(=O)(=O)C(F)(F)F)c4ccccc34)C[C@H]12`, the TGI in assay [1], in assay [2], in assay [3], in assay [4], in assay [5] and in [6] was above 100 µM in each case. Further, the TGI in assay [7], in assay [8], in [9], in assay [10] and in [11] was above 100 µM throughout.

In the case of `CCOC1SC(SC)=NN1C(=O)C(OC(C)=O)C(OC(C)=O)C(OC(C)=O)C(OC(C)=O)C(=O)N1N=C(SC)SC1OCC` (stereo unspecified), the TGI in assay [1], in [2], in assay [3], in [4], in assay [5] and in assay [6] was above 100 µM in each case. Besides, the TGI in assay [7], in [8], in assay [9], in assay [10] and in [11] was above 100 µM in each case.

`Cc1ccc(C)c(NC(=O)C(Cc2c[nH]c3ccccc23)NC(=O)OCc2ccccc2)c1` (stereo unspecified): the TGI in assay [1] is 69.1 µM; in assay [2], 38 µM; in assay [3], 44.8 µM; in assay [4] it was above 100 µM; in [5], above 100 µM; in [6], 21.5 µM. In addition, the TGI in assay [7] is 98.9 µM; in [8], above 100 µM; in assay [9] it was 44 µM; in [10], above 100 µM; in assay [11], 46.1 µM.

As to `Cc1cc2[nH]c3c(C#N)c(-c4ccccc4)c(CN4CCOCC4)c(=O)n3c2cc1C`, the TGI in assay [1], in assay [2], in assay [3], in assay [4], in assay [5] and in assay [6] was above 100 µM each time. For the same compound, the TGI in [7], in assay [8], in [9], in [10] and in assay [11] was above 100 µM in each case.

For the compound `O=C(O)C(F)(OC(F)(F)C(F)(OC(F)(F)C(F)(F)C(F)(F)F)C(F)(F)F)C(F)(F)F` (stereo unspecified), the TGI in assay [1], in assay [2], in assay [3], in assay [4], in [5] and in assay [6] was above 100 µM throughout. The TGI in [7], in assay [8], in assay [9], in [10] and in assay [11] was above 100 µM in each case.

In the case of `CCCCCCCCCCCCP(=O)(O)OCC(N)C(=O)O` (stereo unspecified), the TGI in [1] was above 100 µM; in [2], above 100 µM; in [3], above 100 µM; in assay [4] it was 31.6 µM; in assay [5] it was above 100 µM; in assay [6], 47.4 µM. Moreover, the TGI in [7] was above 100 µM; in assay [8], above 100 µM; in assay [9] it was 89.6 µM; in assay [10], 34.6 µM; in assay [11] it was above 100 µM.

As for `Cc1cccc(NC(=S)N/N=C(/c2ccccc2)c2ccccn2)c1`, the TGI in [1] was 14.6 µM; in assay [2] it was 19.6 µM; in assay [3], 17 µM; in assay [4] it was 17.5 µM; in assay [5], 11.5 µM; in assay [6], 12.8 µM. Further, the TGI stood at 12.6 µM in assay [7]; 0.663 µM in [8]; 8.91 µM in [9]; 17.6 µM in [10]; 12.8 µM in assay [11].

For the compound `CC(NC(=O)C(N)CC(=O)O)NC(=O)N1CCCC1` (stereo unspecified), the TGI in [1], in assay [2], in assay [3], in [4], in assay [5] and in assay [6] was above 100 µM in each case. Also, the TGI in assay [7], in assay [8], in assay [9], in [10] and in assay [11] was above 100 µM each time.

For the compound `CCn1cnc2c(NC(C)=O)ncnc21`, the TGI in assay [1], in assay [2], in assay [3], in assay [4], in assay [5] and in [6] was above 100 µM in each case. Moreover, the TGI in [7], in [8], in assay [9], in [10] and in [11] was above 100 µM each time.

As for `O=C(N/C(=C\c1ccccc1)C1Nc2ccccc2C(=O)O1)c1ccccc1` (stereo unspecified), the TGI in assay [1] is 33.5 µM; in [2], above 100 µM; in [3], 62.2 µM; in assay [4] it was 61.6 µM; in assay [5] it was 36.1 µM; in assay [6], 43.7 µM. The TGI in assay [7] is 45.6 µM; in assay [8] it was above 100 µM; in assay [9] it was 35.5 µM; in assay [10] it was above 100 µM; in [11], 80.9 µM.
